Experimental data taken from ChEMBL document CHEMBL1275421, “Reduced Candida glabrata susceptibility secondary to an FKS1 mutation developed during candidemia treatment” (2008).
In brackets after ≈: the same amount, converted by molar mass. *1 amine or outer side, *2 acyl side, *3 side chain or, on linkers, in order; H or OH if unused. Where a SMILES comes first, the peptide text is derived from it. Bridges are numbered along the chain shown (N, C = ends). [ ]: non-standard residue; d: D form. The star is where a group is joined. hTyr(3S-OH,4S-OH,3'-OSO3H) = N[C@H](C(=O)O)[C@H](O)[C@@H](O)c1ccc(O)c(OS(=O)(=O)O)c1; pTerphenylCO(4''-OnC5H11) = CCCCCOc1ccc(-c2ccc(-c3ccc(C(=O)*)cc3)cc2)cc1; Orn(4R-OH,5R-OH) = O=C([C@H](C[C@@H](O)[C@@H](O)N[*:3])N[*:1])[*:2]; hTyr(3S-OH,4S-OH) = N[C@H](C(=O)O)[C@H](O)[C@@H](O)c1ccc(O)cc1; Pro(3S-OH,4S-Me) = C[C@H]1CN[C@H](C(=O)O)[C@H]1O; X1 = CCCCCOc1ccc(-c2cc(-c3ccc(C(=O)*)cc3)no2)cc1; Gln(3R-OH) = NC(=O)C[C@@H](O)[C@H](N)C(=O)O; Hyp = O=C(O)[C@@H]1C[C@@H](O)CN1

Legend:
Assay type in all cases: functional
Nakaseomyces glabratus [1] = assay: Antifungal activity against Candida glabrata 06-3170 harboring […] T1896G and D632E mutant obtained from patient on compound therapy by M27-A2 method
Nakaseomyces glabratus [2] = assay: Antifungal activity against Candida glabrata 06-3169 harboring […] T1896G and D632E mutant obtained from patient on compound therapy by M27-A2 method
Nakaseomyces glabratus [3] = assay: Antifungal activity against Candida glabrata 06-3168 obtained from patient on compound therapy by M27-A2 method
Pichia kudriavzevii = assay: Antifungal activity against Candida krusei obtained from patient with acute myeloid leukemia

| Structure (SMILES) | MIC (Nakaseomyces glabratus [1]) [µg/mL] | MIC (Nakaseomyces glabratus [2]) [µg/mL] | MIC (Nakaseomyces glabratus [3]) [µg/mL] | MIC (Pichia kudriavzevii) [µg/mL] |
| --- | --- | --- | --- | --- |
| C[C@@H](c1ncncc1F)[C@](O)(Cn1cncn1)c1ccc(F)cc1F [VORICONAZOLE] | 0.03 (≈ 0.0859 µM) | 0.03 (≈ 0.0859 µM) | 0.03 (≈ 0.0859 µM) |  |
| OC(Cn1cncn1)(Cn1cncn1)c1ccc(F)cc1F [FLUCONAZOLE] | 1 (≈ 3.27 µM) | 1 (≈ 3.27 µM) | 1 (≈ 3.27 µM) |  |
| C[C@@H]1[C@H](O)[C@@H](C)/C=C/C=C/C=C/C=C/C=C/C=C/C=C/[C@H](O[C@@H]2O[C@H](C)[C@@H](O)[C@H](N)[C@@H]2O)C[C@@H]2O[C@](O)(C[C@@H](O)C[C@@H](O)[C@H](O)CC[C@@H](O)C[C@@H](O)CC(=O)O[C@H]1C)C[C@H](O)[C@H]2C(=O)O [AMPHOTERICIN B] | 0.125 (≈ 0.135 µM) | 0.125 (≈ 0.135 µM) | 0.125 (≈ 0.135 µM) |  |
| CC[C@H](C)C[C@H](C)CCCCCCCCC(=O)N[C@H]1C[C@@H](O)[C@@H](NCCN)NC(=O)[C@@H]2[C@@H](O)CCN2C(=O)[C@H]([C@H](O)CCN)NC(=O)[C@H]([C@H](O)[C@@H](O)c2ccc(O)cc2)NC(=O)[C@@H]2C[C@@H](O)CN2C(=O)[C@H]([C@@H](C)O)NC1=O [CASPOFUNGIN] | > 2 | > 2 | 0.06 (≈ 0.0549 µM) | 2 (≈ 1.83 µM) |
| CCCCCOc1ccc(-c2cc(-c3ccc(C(=O)N[C@H]4C[C@@H](O)[C@@H](O)NC(=O)[C@@H]5[C@@H](O)[C@@H](C)CN5C(=O)[C@H]([C@H](O)CC(N)=O)NC(=O)[C@H]([C@H](O)[C@@H](O)c5ccc(O)c(OS(=O)(=O)O)c5)NC(=O)[C@@H]5C[C@@H](O)CN5C(=O)[C@H]([C@@H](C)O)NC4=O)cc3)no2)cc1 [MICAFUNGIN] (X1-[Orn(4R-OH,5R-OH)]T[Hyp][hTyr(3S-OH,4S-OH,3'-OSO3H)][Gln(3R-OH)][Pro(3S-OH,4S-Me)]; lactam 1-C) | > 2 | > 2 | 0.06 (≈ 0.0472 µM) |  |
| CCCCCOc1ccc(-c2ccc(-c3ccc(C(=O)N[C@H]4C[C@@H](O)[C@@H](O)NC(=O)[C@@H]5[C@@H](O)[C@@H](C)CN5C(=O)[C@H]([C@@H](C)O)NC(=O)[C@H]([C@H](O)[C@@H](O)c5ccc(O)cc5)NC(=O)[C@@H]5C[C@@H](O)CN5C(=O)[C@H]([C@@H](C)O)NC4=O)cc3)cc2)cc1 [ANIDULAFUNGIN] ({pTerphenylCO(4''-OnC5H11)}-[Orn(4R-OH,5R-OH)]T[Hyp][hTyr(3S-OH,4S-OH)]T[Pro(3S-OH,4S-Me)]; lactam 1-C) | > 2 | > 2 | 0.03 (≈ 0.0263 µM) |  |
